Data published in patent US20210403573A1, “METHODS AND PHARMACEUTICAL COMPOSITIONS FOR THE TREATMENT OF FIBROSIS WITH AGENTS CAPABLE OF INHIBITING THE ACTIVATION OF MUCOSAL-ASSOCIATED INVARIANT T (MAIT) CELLS” (INSERM (Institut National de la Santé et de la Recherche …, priority 2017, published 2021).

Target: T1, MR1 (Homo sapiens, UniProt Q95460)
T1 construct: endogenous in cells; host or cells: human hepatic myofibroblasts (HMF), alone or in co-culture with MAIT cells
Assay: Surface expression of MR1 on hepatic myofibroblasts by flow cytometry
Format: cell-based
Settings: 1 μM, 2 hrs at 37° C., PE-conjugated anti MR1 antibody (26.5)
Experimental: Analysis of Surface Expression of MR1 on Hepatic Myofibroblasts by Flow Cytometry
Hepatic myofibroblast cultures or HMF/MAIT cell co-cultures were exposed to 1 μM Acetyp 6-formylpterin (Ac 6-FP) (Schircks Laboratories, Switzerland) for 2 hrs at 37° C. Cells were then washed, trypsinised, labeled with PE-conjugated anti MR1 antibody (26.5)/isotype control and subjected to flow cytometric analysis.

T1 sequence (P61769 21-119): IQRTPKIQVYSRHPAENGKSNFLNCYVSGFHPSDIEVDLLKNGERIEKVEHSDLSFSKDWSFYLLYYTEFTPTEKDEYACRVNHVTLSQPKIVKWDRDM
T1 sequence (Q95460 23-341): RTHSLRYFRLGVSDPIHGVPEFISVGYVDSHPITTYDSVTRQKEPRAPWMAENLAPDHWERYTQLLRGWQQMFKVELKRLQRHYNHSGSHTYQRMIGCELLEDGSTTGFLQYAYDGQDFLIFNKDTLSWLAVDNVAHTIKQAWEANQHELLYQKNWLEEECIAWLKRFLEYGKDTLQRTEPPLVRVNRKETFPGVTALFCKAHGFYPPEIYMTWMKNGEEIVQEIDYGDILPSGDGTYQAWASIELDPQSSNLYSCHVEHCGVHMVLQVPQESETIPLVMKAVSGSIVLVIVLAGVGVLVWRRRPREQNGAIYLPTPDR

Substance: Acetyl-6-formyl-pterin [Acetyl-6-formyl-pterin (6FP)]
- surface expression of MR1 on hepatic myofibroblasts: enhanced
